One assay relates to Barley. The experiment in a line: Whole plant screen for plant growth regulator activity, barley (BR). It is filed as in vivo, Barley (Atem). To be noted: for G = Greening effect / I = Interligular or internodal length reduction / R = Retardation / T = Tillering or side shooting: BR, 4000 ppm (4 kg/ha), visual score after 2-6 weeks; for T = Tillering or side shooting: * = decrease in tillering. Summed up:
(§1)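 Plants were sprayed with compound at 4000 ppm (4 kg/ha in a 1000 l/ha field volume) by tracksprayer and kept in a glasshouse under a 16 h photoperiod: maize and rice at 25° C. day/22° C. night, wheat and barley at 16° C. day/13° C. night. Morphology was scored visually after 2-6 weeks against formulation blanks.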

The next assay deals with Wheat. The experiment in a line: Whole plant screen for plant growth regulator activity, wheat (WW). To be noted: WW, 4000 ppm (4 kg/ha), visual score after 2-6 weeks; for T = Tillering or side shooting: * = decrease in tillering. The format is in vivo, Wheat (Timmo). An outline of the steps:
as §1

Assay [1] has as its system Rice. The assay can be described thus: Whole plant screen for plant growth regulator activity, rice (RC). The format is in vivo, Rice (Ishikari). To be noted: 4000 ppm (4 kg/ha), visual score after 2-6 weeks. Summed up: as §1
The next assay has as its system Maize. The assay can be described thus: Whole plant screen for plant growth regulator activity, maize (MZ). It is filed as in vivo, Maize (Earliking). To be noted: 4000 ppm (4 kg/ha), visual score after 2-6 weeks. Summed up: as §1
The subject of another assay is Apple. The assay can be described thus: Whole plant screen for plant growth regulator activity, apple (AP). It is filed as in vivo, Apple (Red Delicious). As to conditions: 4000 ppm (4 kg/ha), visual score after 2-6 weeks. An outline of the steps: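 Growth-regulator effects were judged by eye on glasshouse plants 2-6 weeks post-spray (timing varying with season), using formulation blanks for comparison. Application rate was 4000 ppm, equivalent to 4 kg/ha in 1000 l/ha.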

Assay [2] has as its system Rice. The experiment in a line: Intermediate Retardant Test, rice. The format is in vivo, Rice (Ishikari). To be noted: Oryza sativa, 672 h, overall spray, approximately 28 days, Table VI, read-out: Percentage Reduction in Height of Rice (Compared to formulation blank). Summed up:
(§2)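 Overall spray at 500 and 2000 ppm (0.5 and 2 kg/ha^-1 at 1000 l/ha^-1); for apples, a 2000 ppm foliar-only spray was also compared with a 2000 ppm root drench. Rice grew in flooded 4" paddy pots, barley and apples in 4" pots. About 28 days after treatment, height (to top-most ligule, or to apex for apples) was recorded as % reduction versus formulation blank.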

A further assay deals with Spring Barley. The experiment in a line: Intermediate Retardant Test, spring barley. It is filed as in vivo, Spring Barley (Atem/kym). As to conditions: Hordeum vulgare, 672 h, overall spray, approximately 28 days, Table VII, read-out: Percentage Reduction in Height of Spring Barley (Compared to formulation blank). An outline of the steps:
as §2

Assay [3] concerns Apples. The experiment in a line: Intermediate Retardant Test, apples, overall spray. As to conditions: approximately 28 days, Table VIII. It is filed as in vivo, Apples (Red Delicious). An excerpt:
Three species are involved in this test RICE, SPRING-BARLEY and APPLES. The variety and growth stages at spray are outlined in Table V. Compounds were applied at 500 ppm and 2000 ppm respectively (0.5 kg and 2 kg/ha^-1 at a field volume of 1000 l/ha^-1) as an overall spray except in the case of certain tests on APPLES. This gives a foliar and root component in the test, i.e., this test will detect the activity of both root and foliar acting compounds. The intermediate retardant test on APPLES of which the results are given in Table IX was different, in that a foliar (only) spray at 2000 ppm was compared with a root drench, also at 2000 ppm. The rice was grown in 4" `paddy` pots, i.e., the roots and bottom of the stems are immersed in water under conditions corresponding to those in paddy fields. Spring barley and apples were grown in 4" pots. The plants were assessed for height to top-most ligule at approximately 28 days after treatment for spring barley and rice and for height to apex at approximately 28 days after the treatment for apples. In each case the result for the 500 ppm and 2000 ppm test for each compound is compared to the height of the formulation blank in that test, presented as a percentage reduction in height compared to the formulation blank.

The subject of the next assay is Erysiphe graminis. The experiment in a line: Foliar fungal disease control, Erysiphe graminis (barley). The format is in vivo. As to conditions: 100 ppm spray plus root drench (approximately 40 ppm a.i/dry soil); inoculated 24 hours before treatment.
Another assay deals with Pyricularia oryzae. It is filed as in vivo. As to conditions: 100 ppm spray plus root drench (approximately 40 ppm a.i/dry soil), one or two days before inoculation.
For a further assay, the system named is Cercospora arachidicola. The assay can be described thus: Foliar fungal disease control, Cercospora arachidicola (peanut). It is filed as in vivo. As to conditions: 100 ppm spray plus root drench (approximately 40 ppm a.i/dry soil), one or two days before inoculation.
The test system of another assay is Plasmopara viticola. The experiment in a line: Foliar fungal disease control, Plasmopara viticola (vine). It is filed as in vivo. To be noted: 100 ppm spray plus root drench (approximately 40 ppm a.i/dry soil), one or two days before inoculation.
In another assay the test system is Puccinia recondita. The assay can be described thus: Foliar fungal disease control, Puccinia recondita (wheat). The format is in vivo. As to conditions: 100 ppm spray plus root drench (approximately 40 ppm a.i/dry soil), one or two days before inoculation.
For another assay, the system named is Phytophthora infestans. The format is in vivo. As to conditions: 100 ppm spray plus root drench (approximately 40 ppm a.i/dry soil), one or two days before inoculation.
A further assay relates to Tomato. The experiment in a line: Whole plant screen for plant growth regulator activity, tomato (TO). To be noted: 4000 ppm (4 kg/ha), visual score after 2-6 weeks. It is filed as in vivo, Tomato (Ailsa Craig). An outline of the steps: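 Tomato (Ailsa Craig), one plant per 3-inch peat pot, sprayed at 2–2½ leaves with 4000 ppm (4 kg/ha in 1000 l/ha) by track sprayer. Glasshouse 25 °C day/22 °C night, 16 h photoperiod; morphology visually scored after 2–6 weeks against formulation blanks.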

Assay [4] concerns Apples. The experiment in a line: Intermediate Retardant Test, apples, foliar spray compared with root drench. The format is in vivo, Apples (Red Delicious). To be noted: 672 h, approximately 28 days, Table IX, read-out: Percentage Reduction in Height of Apples (Compared to formulation blank). An outline of the steps: as §2

Each structure is given as a SMILES string.

Turning to `CCCCC#CC(O)(c1cncnc1)C(C)C` (centres unmarked) [Compound 1, 2-methyl-1-(hex-1-yne)-1-(pyrimidin-5-yl)-propan-1-ol], the “G = Greening effect” value is reported as 2 (31-60%) with Barley, 1 (10-30%) in the assay on Wheat and 2 (31-60%) with Rice [1]. In addition, the “I = Interligular or internodal length reduction” value was 3 (61-100%) with Barley, 3 (61-100%) in the assay on Rice [1], 2 (31-60%) with Maize and 3 (61-100%) with Apple. In addition, the “R = Retardation” value is given as 3 (61-100%) in the assay with Barley; 3 (61-100%) in the assay with Wheat; 2 (31-60%) in the assay with Rice [1]; 2 (31-60%) in the assay with Maize; 3 (61-100%) with Apple. Moreover, the “T = Tillering or side shooting” value in the assay on Barley is 1 (10-30%); in the assay with Wheat it was 2 (31-60%); in the assay with Rice [1] (* = decrease in tillering) it was 3 (61-100%); in the assay on Apple (* = decrease in tillering), 1 (10-30%). Moreover, the Percent reduction in rice height vs formulation blank at 500 ppm in the assay with Rice [2] is 6.06%. Besides, the Percent reduction in rice height vs formulation blank at 2000 ppm in the assay with Rice [2] was 23%. Also, in the assay on Spring Barley, the percent reduction in plant height at 500 ppm worked out at 1.3%. The percent reduction in plant height at 2000 ppm with Spring Barley was 12.1%. Further, the “Percentage Reduction in Height of Apples (Compared to formulation blank)” value with Apples [3] (500 ppm) is reported as 10.8%; in the assay with Apples [3] (2000 ppm), 39.2%. For the same compound, the “disease control, ERYSIPHE GRAMINIS (BARLEY)” value (shortened to “disease control … (BARLEY)”) with Erysiphe graminis came to 4. Also, in the assay with Pyricularia oryzae, the “disease control, P[…] (RICE)” value was 0 (60-100% of disease on untreated plants). Moreover, in the assay on Cercospora arachidicola, the “disease control, CERCOSPORA ARACHIDICOLA (PEANUT)” value (from here on “disease control … (PEANUT)”) is 0 (60-100% of disease on untreated plants). The “disease control, PLASMOPARA VITICOLA (VINE)” value (“disease control … (VINE)” for short) with Plasmopara viticola is reported as 0 (60-100% of disease on untreated plants). Further, in the assay with Puccinia recondita, the “disease control, PUCCINIA RECONDITA (WHEAT)” value (shortened to “disease control … (WHEAT)”) is recorded as 0 (60-100% of disease on untreated plants). Further, the “disease control, PH[…] (TOMATO)” value in the assay on Phytophthora infestans is 0 (60-100% of disease on untreated plants).
As for `CC(C)(C)C(O)(C#CCCCCl)c1cncnc1` (centres unmarked) [Compound 19, 2,2-Dimethyl-1-(5-chloropent-1-yne)-1-(pyrimidin-5-yl)-propan-1-ol], the “A = Apical damage” value in the assay with Barley (4000 ppm) is 3 (61-100%). The “G = Greening effect” value with Barley is 1 (10-30%); in the assay with Rice [1], 2 (31-60%); in the assay on Apple, 1 (10-30%); in the assay on Tomato it was 2 (31-60%). For the same compound, the “I = Interligular or internodal length reduction” value in the assay on Barley is recorded as 3 (61-100%); with Wheat, 3 (61-100%); in the assay on Rice [1] it was 3 (61-100%); in the assay with Apple, 3 (61-100%); in the assay with Tomato, 2 (31-60%). Moreover, the “R = Retardation” value in the assay on Barley is recorded as 3 (61-100%); in the assay with Wheat it was 3 (61-100%); in the assay on Rice [1] it was 2 (31-60%); in the assay on Apple, 3 (61-100%); in the assay with Tomato it was 2 (31-60%). In addition, the “T = Tillering or side shooting” value in the assay with Barley and in the assay on Wheat was 3 (61-100%) throughout. Moreover, the Percent reduction in rice height vs formulation blank at 500 ppm in the assay on Rice [2] came to 11%. In addition, the Percent reduction in rice height vs formulation blank at 2000 ppm with Rice [2] stood at 39%. Also, the percent reduction in plant height at 500 ppm in the assay with Spring Barley came out at 31%. Further, the results for the percent reduction in plant height at 2000 ppm in the assay on Spring Barley and in the assay on Apples [4] (2000 ppm (Foliar)) were 57% and 54%, respectively. Further, in the assay on Apples [4] (soil, 2000 pmm (Root), root drench), the percent reduction in plant height at 2000 µg/mL turned out to be 65%. For the same compound, the “disease control … (BARLEY)” value in the assay with Erysiphe graminis was found to be 4. Also, the “disease control, P[…] (RICE)” value in the assay on Pyricularia oryzae was 0 (60-100% of disease on untreated plants). In the assay on Cercospora arachidicola, the “disease control … (PEANUT)” value was found to be 4. For the same compound, the “disease control … (VINE)” value in the assay on Plasmopara viticola is given as 0 (60-100% of disease on untreated plants). Besides, the “disease control … (WHEAT)” value in the assay with Puccinia recondita was 4. For the same compound, the “disease control, PH[…] (TOMATO)” value with Phytophthora infestans is given as 0 (60-100% of disease on untreated plants).
For the compound `CC(C)(C)/C=C/C(O)(c1cncnc1)C1(C)CC1` (centres unmarked) [Compound 55], the “T = Tillering or side shooting” value in the assay on Barley is given as 3 (61-100%). Besides, in the assay on Wheat, the “G = Greening effect” value was 1 (10-30%), the “I = Interligular or internodal length reduction” value is 2 (31-60%), the “R = Retardation” value is given as 2 (31-60%) and the “T = Tillering or side shooting” value is 1 (10-30%). In the assay on Tomato, the “G = Greening effect” value is recorded as 2 (31-60%), the “I = Interligular or internodal length reduction” value was 2 (31-60%) and the “R = Retardation” value is on record as 2 (31-60%). Moreover, in the assay on Erysiphe graminis, the “disease control … (BARLEY)” value was found to be 4. In addition, the “disease control, P[…] (RICE)” value in the assay with Pyricularia oryzae was 0 (60-100% of disease on untreated plants). Also, the “disease control … (PEANUT)” value in the assay on Cercospora arachidicola is reported as 4. Further, the “disease control … (VINE)” value with Plasmopara viticola is 0 (60-100% of disease on untreated plants). Also, the “disease control … (WHEAT)” value with Puccinia recondita amounted to 4. The “disease control, PH[…] (TOMATO)” value in the assay on Phytophthora infestans is recorded as 0 (60-100% of disease on untreated plants).

Source of the values: US4875922A, “Pyrimidine derivatives” (Imperial Chemical Industries PLC, priority 1986, dated 1989).
